Experiment: gradient 5% acetonitrile 3 min, to 50% in 2 min, to 85% in 15 min, held 3 min, 100 µL/min
Conditions: column: Zorbax Extend-C18 2.1 x 50 mm; eluents: water / acetonitrile, 0.1% formic acid
Method in brief: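 Retention times of pure standards were taken from adduct peaks that were selected by computer and manually inspected. Over 3 months, mixtures of ~100 molecules were run by HPLC–quadrupole time-of-flight mass spectrometry in positive and negative ionization mode. The Zorbax Extend-C18 column (2.1 × 50 mm, 1.8 μm) ran at 100 μL/min in water and acetonitrile, each containing 0.1% formic acid, with 40 μL dead volume and 900 μL dwell volume.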

RP-LC retention time [s]	SMILES
1180	Cc1ccccc1Cc1noc(-c2nc(-c3ccccc3F)no2)n1
1140	CCOc1cccc(-c2noc(Cn3ncn4nc(-c5cccs5)cc4c3=O)n2)c1
944	CCOC(=O)c1nc(NCCCOC)c2c(-c3ccc(F)cc3)noc2n1
1040	Cc1ccc2c(c1)N(Cc1ccccc1C)N=C(C(=O)N1CCCCC1)S2(=O)=O
675	O=C(Nc1cccc(F)c1)[C@@H]1OCCN(C2CC2)[C@H]1c1ccccc1
619	CN1CCN(C(=O)C2CCN(S(=O)(=O)c3cc(C(=O)N4CCCCCC4)cs3)CC2)CC1
717	CCOc1ccc(NS(=O)(=O)c2cc(-c3[nH]ncc3C(=O)N3CCCC3)oc2C)cc1
845	CC1=C(c2ccc(Cl)cc2)S(=O)(=O)N=C1N1CCCN(C(=O)NCC(C)C)CC1
609	CNC(=O)Cn1nc(C2CCN(C(=O)c3nccc4ccccc34)CC2)c2c1CCOC2
989	O=c1n(Cc2cccc(Cl)c2)nc2ccc(S(=O)(=O)N3CCCCC3)cn12
940	O=C(Nc1ccc(Cl)c(Cl)c1)N1CCN(c2ncc(C(F)(F)F)cc2Cl)CC1
771	CNC(=O)c1nc(C(=O)NCCc2ccc(Cl)cc2)cs1
638	O=C(c1ccc(Cl)cc1)N1CCN(c2nc(CN3CCOCC3)cs2)CC1
942	Cc1ccc(Nc2cc(C)n3c(=O)n(Cc4cc(=O)n5ccccc5n4)nc3n2)cc1F
980	Cc1oc(-c2ccc(NC(=O)c3ccc(Cl)s3)cc2)nc1Cn1cccn1
907	CC1CCN(S(=O)(=O)c2ccc3c(c2)CCCC(=O)N3CC(=O)NCc2ccccc2)CC1
605	Cc1ccc(-c2nnc(C)c(NCc3ccccn3)n2)cc1
708	CCn1cc(CC(=O)NCc2ccc(F)cc2)c2cccnc21
722	Cc1ccc(C)c(NC(=O)Cn2nc3n(c2=O)CCCCC3)c1
885	COC(=O)c1cnn2c(C)c(Cc3ccc(C)cc3)c(C)nc12
918	O=C(Nc1cc(-c2ccsc2)no1)C1CCCC1
737	CCOc1ccc(NC(=O)CSc2ncc(S(=O)(=O)c3ccccc3)c(=O)[nH]2)cc1

RP-LC retention time [s]	SMILES
978	Cc1ccc(NC(=O)C2CCN(S(=O)(=O)c3ccc4c(c3)sc(=O)n4C)CC2)cc1Cl
1190	CCc1nc2cc(-c3noc(CCc4ccccc4OC)n3)ccc2o1
906	O=C([C@@H]1C[C@H](F)CN1S(=O)(=O)c1ccc(F)cc1F)N1CCc2ccccc2C1
644	Cc1ccccc1NC(=O)Cn1cnc2nc(N3CCC(C(=O)NC4CC4)CC3)sc2c1=O
805	CCc1cccc(NC(=O)CN2C(=O)NC3(CCCCC3)C2=O)c1
742	Cn1ncc2c(N3CCCC3)nc(C(=O)NCc3cccs3)nc21
766	Cc1cccc(-c2noc(-c3cccnc3N3CCN(c4ccc5c(c4)OCO5)CC3)n2)c1
800	O=C(Cn1nc(N2CCOCC2)c2ccccc2c1=O)N1CCN(c2ccccc2)CC1
607	Cc1c2cnn(-c3ccccc3)c(=O)c2c(C)n1C(C)C(=O)NCCN1CCOCC1 (stereo unspecified)
672	CC(C)c1nc(C2CN(C(=O)Nc3ccc(F)cc3)C2)n(C)n1
704	CN(C)c1ccc(-c2nc3ncc(Cl)c(N4CCN(CC(=O)Nc5nccs5)CC4)c3[nH]2)cc1
881	O=C(NC1CC1)c1nc(C(=O)N2CCN(c3ccccc3Cl)CC2)cs1
672	COc1ccccc1C(=O)N1CCC2(C1)C(=O)Nc1ccccc12 (stereo unspecified)
1030	COc1ccccc1CNC(=O)c1sc(-c2cn(C(C)C)c3ncccc23)nc1C
933	O=C1CC(c2nc(-c3ccccc3)no2)CN1c1ccc2c(c1)OCCO2 (stereo unspecified)
1200	COc1cccc(/C=C2\CCc3ccccc3C2=O)c1
724	COc1ccc(N2CC(C(=O)NCC(=O)N3CCCc4ccccc43)CC2=O)cc1 (stereo unspecified)
1220	NC(=O)c1cc(Br)cc(C2CCCCC2)c1O
651	Cc1cc(N2CCN(C(=O)Nc3ccccc3C)CC2)nc(N2CCCC2)n1
1010	CC1CCN(S(=O)(=O)c2ccc3c(c2)CCCC(=O)N3CC(=O)N2CCc3ccccc3C2)CC1
938	CCOC(=O)c1noc2nc(C)nc(Nc3ccc(OC)cc3)c12
718	COc1ccc(-c2cn3cccnc3n2)cc1NC(=O)c1ccc(F)c(F)c1

RP-LC retention time [s]	SMILES
836	O=C(Nc1nccs1)c1cc(Cl)sc1Cl
878	CN1CCN(CCCNC(=O)c2ccccc2NC(=O)C2=CSCCO2)CC1
571	O=C([C@@H]1C[C@H](Oc2cccnc2)CN1C(=O)C1CC=CC1)N1CCCC1
1080	O=C(Nc1nc(-c2ccccc2)cs1)c1c(-c2ccc(Cl)cc2)nc2n1CCS2(=O)=O
822	CCc1noc(NC(C)=O)c1-c1ccc(C)c(S(=O)(=O)Nc2cccc(F)c2)c1
794	CC(C(=O)N1CCN(c2ncccn2)CC1)n1c2ccccc2c2cnn(C)c(=O)c21 (stereo unspecified)
629	O=C(O)c1ccc(Nc2c3ccccc3nc3ccccc23)cc1
1010	Cc1ccc(NS(=O)(=O)c2cc3c(s2)CCN(C(=O)C2CCC2)C3)cc1Cl
963	CC(C)(C)c1noc(-c2ccc(-n3cnc(C(=O)N4CCSCC4)c3)nc2)n1
782	Cc1cccc(N(C)C(=O)c2cccc(NC(=O)[C@H]3[C@@H]4C[C@@H]5[C@H]3C(=O)O[C@@H]5C4)c2)c1
625	Cc1ccc2c(c1)C1CC(C)(O2)N(c2cccc(C(=O)N3CCN(c4ccccn4)CC3)c2)C(=O)N1 (stereo unspecified)
608	CC(C)C(=O)Nc1ccc(-n2cnc(C(=O)N3CCN(Cc4ccccc4)CC3)c2)nc1
577	O=C(NCCN1CCCCCC1)c1nc(-c2ccnc(N3CCCCC3)c2)no1
643	CN1CCN(C(=O)C2CCN(S(=O)(=O)c3cc(-c4noc(C5CC5)n4)cs3)CC2)CC1
764	CC(C)NC(=O)N1CCC(Oc2ccccc2)C1 (stereo unspecified)
596	COCCn1c(CCCC(=O)N2CCN(c3ncccn3)CC2)nc2cccnc21
720	CCN(c1cccc(C)c1)S(=O)(=O)c1cc2n(c1)CCCNC2=O
831	Cc1ccc(C2=NC3(CCN(C(=O)c4ccc5c(c4)OCO5)CC3)NC2=O)cc1C
782	COc1ccc(CC(=O)N2CCC3(C2)C(=O)N(C)c2ccccc23)cc1 (stereo unspecified)
619	COc1cc(OC)c(NC(=O)N(C)Cc2nc3cc(C(=O)N(C)C)ccc3n2C)cc1Cl
789	COc1cccc(NC(=O)Cn2c(=O)n(-c3ccccc3)c(=O)c3c2cc(C)n3C)c1
737	CCOc1ccc(NC(=O)c2cccc(-n3cnnn3)c2)cc1

RP-LC retention time [s]	SMILES
855	CCCCC(=O)N1CCCN(C2=NS(=O)(=O)C(c3ccc(C)cc3)=C2C)CC1
966	COc1cccc(-n2cc(-c3nc(-c4ccccn4)no3)c3ccccc3c2=O)c1
842	Cc1cccc(NC(=O)c2ncn3c2C(=O)N(C2CC2)C(C)(C(=O)NC2CCCC2)C3)c1C (stereo unspecified)
737	CS(=O)(=O)c1cccc(CNc2nc(Nc3ccc4c(c3)CCC(=O)N4)ncc2C(F)(F)F)c1
1300	Cc1sc(-c2cc(C(F)(F)F)on2)cc1S(=O)(=O)N1CCN(c2ccccc2)CC1
1030	COc1ccccc1Cc1noc(C2CN(S(=O)(=O)c3ccc(F)c(Cl)c3)C2)n1
792	N#Cc1ccc(NC(=O)C2CCN(S(=O)(=O)c3cc(C(=O)N4CCCC4)cs3)CC2)cc1
610	COc1cc(NC(=O)N(C)Cc2nc3cc(C(=O)N(C)C)ccc3n2C)cc(OC)c1
900	COc1cccc2oc(-c3ccccc3)cc(=O)c12
772	O=C(Nc1cc(-c2ccccn2)no1)c1ccc2c(c1)OCO2
1210	O=C(Nc1ccccc1)c1c(O)c2cccnc2n(-c2cccc(F)c2)c1=O
883	COc1ccc(Cl)cc1NS(=O)(=O)c1cc2c(s1)CCN(C(=O)C1CC1)C2
876	Cc1cc(N2CCN(S(=O)(=O)c3ccc(C)c(C)c3)CC2)nc(NC2CCCCC2)n1
962	COc1ccc(-c2noc(CN3C(=O)COc4ccc(Cl)cc43)n2)c(OC)c1
636	O=C(Nc1ccccc1)Nc1c(-c2ccccc2)nc2ccccn12
927	COc1ccc(S(=O)(=O)NCc2ccc3c(c2)CCN3C(=O)c2ccc(F)cc2)cc1
648	O=C1NC(=O)/C(=C/c2ccc(C(=O)Nc3ccc(C(=O)O)cc3)cc2)S1
654	Cn1nnnc1SCC(=O)NCCOc1ccc(-c2ccc(F)cc2)nn1
1170	COc1ccc(CN2C=C(C(=O)OCc3nc(-c4cccc(C)c4)no3)C(C)=NS2(=O)=O)cc1
681	Cc1ccc2c(Nc3ccc(C)c(C)c3)c(C(=O)N3CCCC(C)C3)cnc2n1 (stereo unspecified)

— the METLIN SMRT retention time set (Domingo-Almenara et al. 2019)
